Molecular target: human Nav1.7 (Homo sapiens (Human), UniProt Q15858)
Assay: FLIPR or FLIPR TETRA sodium dye assay with KCl and test article pre-incubation
Assay type: cell-based
Settings: sodium dye assay with KCl; recombinant Nav1.7/HEK293 cells; read-out: Nav1.7 IC50 (μM) ± SEM

Sequence of human Nav1.7 (Q15858 other isoform, or with tags, fused parts or gaps): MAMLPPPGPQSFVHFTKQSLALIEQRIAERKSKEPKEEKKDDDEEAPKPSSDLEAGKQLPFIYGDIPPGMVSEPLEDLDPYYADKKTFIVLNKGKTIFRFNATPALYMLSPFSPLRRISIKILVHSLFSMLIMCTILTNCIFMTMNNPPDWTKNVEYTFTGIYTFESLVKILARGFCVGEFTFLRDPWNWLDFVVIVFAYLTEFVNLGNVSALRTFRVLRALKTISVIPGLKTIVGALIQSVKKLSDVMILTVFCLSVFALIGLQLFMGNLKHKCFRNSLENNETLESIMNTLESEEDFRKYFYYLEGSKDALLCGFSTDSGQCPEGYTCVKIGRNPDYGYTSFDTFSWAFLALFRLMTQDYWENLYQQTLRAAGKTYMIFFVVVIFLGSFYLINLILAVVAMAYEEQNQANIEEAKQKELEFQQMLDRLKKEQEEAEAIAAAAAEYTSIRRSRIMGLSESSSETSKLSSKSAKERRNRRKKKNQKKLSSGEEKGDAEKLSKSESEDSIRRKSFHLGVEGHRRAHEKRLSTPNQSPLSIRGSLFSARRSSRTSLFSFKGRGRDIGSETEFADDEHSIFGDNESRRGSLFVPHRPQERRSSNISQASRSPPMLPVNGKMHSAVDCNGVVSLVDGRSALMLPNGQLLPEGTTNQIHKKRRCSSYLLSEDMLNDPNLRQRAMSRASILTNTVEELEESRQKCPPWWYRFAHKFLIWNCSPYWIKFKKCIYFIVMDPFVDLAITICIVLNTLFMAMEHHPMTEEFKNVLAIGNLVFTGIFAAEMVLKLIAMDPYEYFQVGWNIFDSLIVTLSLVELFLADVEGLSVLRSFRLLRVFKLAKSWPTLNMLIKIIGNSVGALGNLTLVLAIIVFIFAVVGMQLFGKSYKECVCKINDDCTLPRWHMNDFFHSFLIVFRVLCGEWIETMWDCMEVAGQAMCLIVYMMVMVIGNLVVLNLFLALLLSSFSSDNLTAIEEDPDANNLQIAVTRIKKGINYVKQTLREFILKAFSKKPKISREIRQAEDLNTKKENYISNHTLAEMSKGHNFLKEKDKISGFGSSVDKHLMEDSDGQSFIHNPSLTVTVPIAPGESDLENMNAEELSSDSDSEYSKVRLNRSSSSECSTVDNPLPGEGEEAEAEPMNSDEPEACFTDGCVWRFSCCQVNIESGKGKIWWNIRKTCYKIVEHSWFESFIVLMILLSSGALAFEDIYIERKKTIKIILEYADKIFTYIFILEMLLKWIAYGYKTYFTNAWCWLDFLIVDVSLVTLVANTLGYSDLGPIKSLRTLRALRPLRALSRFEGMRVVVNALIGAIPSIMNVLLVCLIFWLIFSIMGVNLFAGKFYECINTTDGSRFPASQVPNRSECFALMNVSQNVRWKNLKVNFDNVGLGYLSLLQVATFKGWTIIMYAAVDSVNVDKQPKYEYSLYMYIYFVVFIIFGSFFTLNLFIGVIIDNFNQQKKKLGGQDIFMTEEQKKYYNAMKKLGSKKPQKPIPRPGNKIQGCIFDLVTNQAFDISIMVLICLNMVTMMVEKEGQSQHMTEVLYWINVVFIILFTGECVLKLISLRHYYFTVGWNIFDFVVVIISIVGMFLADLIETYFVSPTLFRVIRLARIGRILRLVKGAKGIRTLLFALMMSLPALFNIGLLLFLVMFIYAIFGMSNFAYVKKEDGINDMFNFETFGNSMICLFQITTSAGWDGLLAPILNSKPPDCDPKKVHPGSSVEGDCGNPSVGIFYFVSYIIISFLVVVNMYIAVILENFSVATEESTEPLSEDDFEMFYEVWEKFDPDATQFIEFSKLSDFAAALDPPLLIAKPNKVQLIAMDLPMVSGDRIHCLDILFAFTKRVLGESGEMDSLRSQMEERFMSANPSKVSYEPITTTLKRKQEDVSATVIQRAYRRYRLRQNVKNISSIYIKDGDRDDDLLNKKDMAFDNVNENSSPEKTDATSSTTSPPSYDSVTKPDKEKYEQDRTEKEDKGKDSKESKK

Row | Structure (SMILES) | IC50
1 | O=C(c1cccc(-c2ccc(Oc3ccc(F)cc3)cc2)n1)N1CCN(S(=O)(=O)c2ccc(OC(F)(F)F)cc2)CC1 [Compound 7, (6-(4-(4-fluorophenoxy)phenyl)pyridin-2-yl)(4-((4-(trifluoromethoxy)phenyl)sulfonyl)piperazin-1-yl)methanone] | 0.19 ± 0.05 µM
2 | CS(=O)(=O)c1cccc(S(=O)(=O)N2CCN(C(=O)c3cccc(-c4ccc(Oc5ccc(F)cc5)cc4)n3)CC2)c1 [Compound 8, (6-(4-(4-fluorophenoxy)phenyl)pyridin-2-yl)(4-((3-(methylsulfonyl)phenyl)sulfonyl)piperazin-1-yl)methanone] | 0.78 ± 0.17 µM
3 | N#Cc1cccc(S(=O)(=O)N2CCN(C(=O)c3cccc(-c4ccc(Oc5ccc(F)cc5)cc4)n3)CC2)c1 [Compound 10, 3-((4-(6(4-(4-fluorophenoxy)phenyl)picolinoyl)piprazin-1-yl)sulfonyl)benzonitrile] | 0.43 ± 0.11 µM
4 | CN(C)S(=O)(=O)N1CCN(C(=O)c2cccc(-c3ccc(Oc4ccc(F)cc4)cc3)n2)CC1 [Compound 11, 4-(6-(4-(4-fluorophenoxy)phenyl)picolinoyl)-N,N-dimethyl-piperazine-1-sulfonamide] | 1.01 ± 0.09 µM
5 | CC1(C)C2CCC1(CS(=O)(=O)N1CCN(C(=O)c3cccc(-c4ccc(Oc5ccc(F)cc5)cc4)n3)CC1)C(=O)C2 (centres unmarked) [Compound 12, 1-(((4-(6-(4-(4-fluorophenoxy)phenyl)picolinoyl)piperazin-1-yl)sulfonyl)methyl)-7,7-dimethylbicyclo[2.2.1]heptan-2-one] | 0.14 ± 0.04 µM
6 | CS(=O)(=O)N1CCN(C(=O)c2cccc(-c3ccc(Oc4ccc(F)cc4)cc3)n2)CC1 [Compound 13, (6-(4-(4-fluorophenoxy)phenyl)pyridin-2-yl)(4-(methylsulfonyl)piperazin-1-yl)methanone] | 1.31 ± 0.18 µM
7 | Cc1noc(C)c1S(=O)(=O)N1CCN(C(=O)c2cccc(-c3ccc(Oc4ccc(F)cc4)cc3)n2)CC1 [Compound 14, (4-((3,5-dimethylisoxazol-4-yl)sulfonyl)piperazin-1-yl)(6-(4-(4-fluorophenoxy)phenyl)pyridin-2-yl)methanone] | 0.22 ± 0.04 µM
8 | O=C(c1cccc(-c2ccc(Oc3ccc(F)cc3)cc2)n1)N1CCN(S(=O)(=O)c2cccnc2)CC1 [Compound 15, (6-(4-(4-fluorophenoxy)phenyl)pyridin-2-yl)(4-(pyridin-3-ylsulfonyl)piperazin-1-yl)methanone] | 0.42 ± 0.04 µM
9 | O=C(c1cccc(-c2ccc(Oc3ccc(F)cc3)cc2)n1)N1CCN(S(=O)(=O)c2cccc(OC(F)(F)F)c2)CC1 [Compound 16] | 0.32 ± 0.09 µM
10 | N#Cc1ccc(S(=O)(=O)N2CCN(C(=O)c3cccc(-c4ccc(Oc5ccc(F)cc5)cc4)n3)CC2)cc1 [Compound 17, 4-((4-(6-(4-(4-fluorophenoxy)phenyl)picolinoyl)piperazin-1-yl)sulfonyl)benzonitrile] | 0.97 ± 0.13 µM
11 | O=C(O)c1cccc(S(=O)(=O)N2CCN(C(=O)c3cccc(-c4ccc(Oc5ccc(F)cc5)cc4)n3)CC2)c1 [Compound 18, 3-((4-(6-(4-(4-fluorophenoxy)phenyl)picolinoyl)piperazin-1-yl)sulfonyl)benzoic acid] | 3.48 ± 0.72 µM
12 | O=C(O)c1ccc(S(=O)(=O)N2CCN(C(=O)c3cccc(-c4ccc(Oc5ccc(F)cc5)cc4)n3)CC2)cc1 [Compound 19, 4-((4-(6-(4-(4-fluorophenoxy)phenyl)picolinoyl)piperazin-1-yl)sulfonyl)benzoic acid] | 4.81 ± 0.18 µM
13 | CS(=O)(=O)NCCNC(=O)c1cccc(-c2ccc(Oc3ccc(F)cc3)cc2)n1 [Compound 21, 6-(4-(4-fluorophenoxy)phenyl)-N-(2-(methylsulfonamido)ethyl)picolinamide] | 0.39 ± 0.08 µM
14 | CS(=O)(=O)c1cccc(S(=O)(=O)NCCNC(=O)c2cccc(-c3ccc(Oc4ccc(F)cc4)cc3)n2)c1 [Compound 23, 6-(4-(4-fluorophenoxy)phenyl)-N-(2-(3-(methylsulfonyl)phenylsulfonamido)ethyl)picolinamide] | 0.39 ± 0.03 µM
